# Experimental data: patent US10064839B2, “Methods of treating liver diseases” (Zafgen, Inc., priority 2012, dated 2018)
# Tested on: diet induced obese mice (C57BL6)
# Assay: Diet induced obese mice, 10 days oral 30 mg/kg: body weight and serum cholesterol
# Type: in vivo, mouse
# Conditions: DIO C57BL6 mice, 30 mg/kg oral gavage; for Cholesterol Change: serum
# Method: Compounds were tested in diet induced obese mice (C57BL6) that were on a 65% high fat diet for 8-10 weeks. Mice were dosed for 10 days by oral gavage with 30 mg/kg of the compounds listed. Their body weights were recorded along with serum chemistries including cholesterol.
SMILES,Body Weight Change,Cholesterol Change
CCN(CC)C/C=C\c1cc(F)ccc1S(=O)(=O)Nc1ccc2c(ncc3occc32)c1C(=O)O,−16%,No change
CCN(CC)C/C=C\c1cc(F)ccc1S(=O)(=O)Nc1ccc2c(c1C(=O)O)OCc1occc1-2,−7.0%,−35%
